This is an account of results in patent publication US9562031B1, “Phenethyldihydrobenzodioxolones and methods of use” (Sequoia Sciences, Inc., priority 2015, dated 2017).

Data set [1] concerns NCI-H460 cells. As to the kind of experiment: NCI-60 panel antiproliferation, NCI-H460. The settings on record: Homo sapiens, NCI 60-cell panel. It is filed as cell-based, human. How it is done:
(§1) Bifidenone and Compound 37 were tested for antiproliferation activity against the NCI-60 panel of cancer cell lines. COMPARE analysis was then conducted to compare the activity “fingerprint” of bifidenone to those of known classes of compounds (Zhou, B.-N., Hoch, J. M., Johnson, R. K., Mattern, M. R., Eng, W.-K., Ma, J., Hecht, S. M., Newman, D. J., Kingston, D. G. I., 2000. Use of COMPARE Analysis to Discover New Natural Product Drugs: Isolation of Camptothecin and 9-Methoxycamptothecin from a New Source. Journal of Natural Products 63, 1273-1276.).

Data set [2] concerns RPMI-8226 cells. The data set can be described thus: NCI-60 panel antiproliferation, RPMI-8226. It is filed as cell-based, human. The settings on record: Homo sapiens, NCI 60-cell panel. How it is done:
as §1

Data set [3] deals with Caki-1 cells. The data set can be described thus: NCI-60 panel antiproliferation, Caki-1. It is filed as cell-based, human. The note with it: Homo sapiens, NCI 60-cell panel. The procedure: as §1
Data set [4] relates to OVCAR-4 cells. The data set can be described thus: NCI-60 panel antiproliferation, OVCAR-4. Format: cell-based, human. The settings on record: Homo sapiens, NCI 60-cell panel. How it is done:
as §1

Data set [5] concerns HT29 cells. As to the kind of experiment: NCI-60 panel antiproliferation, HT29. The settings on record: Homo sapiens, HT-29, NCI 60-cell panel. Format: cell-based, human. The procedure: as §1
Data set [6] deals with T-47D cells. As to the kind of experiment: NCI-60 panel antiproliferation, T-47D. The settings on record: Homo sapiens, T47D, NCI 60-cell panel. Format: cell-based, human. How it is done:
as §1

For data set [7], the system named is BT-549 cells. The data set can be described thus: NCI-60 panel antiproliferation, BT-549. Format: cell-based, human. The note with it: Homo sapiens, NCI 60-cell panel. The procedure:
as §1

The subject of data set [8] is SN12C cells. The data set can be described thus: NCI-60 panel antiproliferation, SN12C. Format: cell-based, human. The note with it: Homo sapiens, NCI 60-cell panel. How it is done:
as §1

In data set [9] the test system is HCT-116 cells. The data set can be described thus: NCI-60 panel antiproliferation, HCT-116. Format: cell-based, human. The note with it: Homo sapiens, NCI 60-cell panel. The procedure:
as §1

In data set [10] the test system is COLO205 cells. As to the kind of experiment: NCI-60 panel antiproliferation, COLO205. Format: cell-based, human. The note with it: Homo sapiens, COLO 205, NCI 60-cell panel. How it is done:
as §1

Data set [11] deals with MDA-MB-231 cells. The data set can be described thus: NCI-60 panel antiproliferation, MDA-MB-231. Format: cell-based, human. The note with it: Homo sapiens, NCI 60-cell panel. The procedure:
as §1

Data set [12] has as its system TK-10 cells. As to the kind of experiment: antiproliferation assay, paclitaxel-resistant TK-10. It is filed as cell-based. The note with it: Homo sapiens. How it is done:
For the antiproliferation assay, NCI-H460 (large cell lung carcinoma) or M14 (amelanotic melanoma) cells were grown in RPMI-1640 with 10% FBS supplemented with L-glutamine and HEPES. Cells were seeded into 96-well plates at 5×10^2 to 5×10^4 cells/well and allowed to adhere overnight; the medium was then removed. A stock solution of test compound in DMSO was diluted in medium to generate a series of working solutions. Aliquots (100 μl) of the working solutions were then added to the appropriate test wells to expose cells to the final concentrations of compound in a total volume of 100 μl. Seven different concentrations were tested, with 2-5 wells per concentration. Camptothecin was used as a positive control; wells containing vehicle without compound were used as negative controls. Plates were kept for 72 h in a 37° C., 5% CO2 incubator. After incubation, viable cells were detected with the CELLTITER 96 AQueous Non-Radioactive Cell Proliferation Assay (Promega), and IC50 values were determined using GraphPad Prism 5 software.
Compound 4 was tested for antiproliferation activity against several paclitaxel-resistant human cancer cell lines.

The test system of data set [13] is LOX-IMVI (melanoma) xenograft tumors. The data set can be described thus: tumor growth inhibition, LOX-IMVI murine xenograft model. It is filed as in vivo, mice. The procedure: Tumor growth inhibition of compound 4 was measured in several murine xenograft models, and the results of individual experiments are listed in Table 14. Tumors were initiated by subcutaneous injection of either tumor cells from cell culture or tumor fragments from continuous in vivo passage. When tumors reached volumes between approximately 100 and 200 mm^3, the mice were divided into vehicle and treatment groups. Compound or vehicle was administered by IP injection in a volume of 5-10 mL/kg.
Changes in tumor weight (delta weights) for each treated (T) and control (C) group are calculated for each day tumors are measured by subtracting the median tumor weight on the first day of treatment (staging day) from the median tumor weight on the specified observation day. These values are used to calculate a percent T/C as follows: % T/C=(delta T/delta C)×100. The optimal T/C is the minimal value obtained after the first treatment.

The nature of data set [14]: compound concentrations in mouse plasma after IP injection (LC/MS). It is filed as in vivo. The settings on record: mice, IP 40 mg/kg, 3-5 h after injection; vehicle 42.97% propylene glycol, 0.23% TWEEN-20, 31.5% PEG400, 15.3% ethanol, 10% water. The procedure:
The bioavailabilities of certain compounds were examined in mice. Administration of the compounds was performed by intraperitoneal (IP) injection using a vehicle as known to those skilled in the art. To measure compound concentrations in plasma, blood is collected by cardiac puncture at a specified time after […]. It is then centrifuged in a plasma separator tube with NaEDTA/NaF as the anticoagulant, and the resulting plasma is stored at −80° C. For analysis, an internal standard is added to a 200 μL aliquot of plasma, and the aliquot is extracted with ethyl acetate. The ethyl acetate extract is analyzed by LC/MS and quantitated using a standard curve prepared by adding known amounts of test compound and internal standard to 200 μL aliquots of blank mouse plasma.
Many vehicles can be used to examine bioavailability. […]
Plasma concentrations were measured for several additional compounds. Table 12 lists plasma concentrations (as a multiple of the compound's IC50 against NCI-H460 cells) measured for these compounds at different time points after injection, along with the vehicle used.

Where [15] appears, read: IP 30 mg/kg, days 0,1,2,3,4,5,6.

With `C=CC[C@H]1C[C@]2([C@@H](C)Cc3ccc(OC)c(F)c3)OCOC2=CC1=O` [Compound 37, (6S,7aR)-6-allyl-7a-((S)-1-(3-fluoro-4-methoxyphenyl)propan-2-yl)-7,7a-dihydrobenzo[d][1,3]dioxol-5(6H)-one], the IC50 in [1] was 49 nM; in data set [2], 74 nM; in data set [3] it was 97 nM; in [4], 117 nM; in data set [5], 88 nM; in [6], over 10000 nM. For the same molecule, the IC50 was determined as 63 nM in data set [7]; 350 nM in data set [8]; 115 nM in data set [9]; 67 nM in [10]; 837 nM in [11].
Take `C=CC[C@H]1C[C@]2([C@H](C)Cc3cc(O)c(OC)cc3F)OCOC2=CC1=O` (relative stereo) [Compound 4, 6-allyl-7a-(1-(2-fluoro-5-hydroxy-4-methoxyphenyl)propan-2-yl)-7,7a-dihydrobenzo[d][1,3]dioxol-5(6H)-one]: 7 nM corresponded to half-maximal inhibition in data set [12] (IC50). The “Maximum Mean Body Weight Loss” value in data set [13] (IP 30 mg/kg, days 0,1,2,3,4,5) came to 7%; in data set [13] (setting [15]), 6%; in [13] (IP 40 mg/kg, days 0,1,2,5,6,7) it was 9%. Also, the “Optimal T/C” value in data set [13] (IP 30 mg/kg, days 0,1,2,3,4,5) came out at 31%; in data set [13] (setting [15]) it was 36%; in data set [13] (IP 40 mg/kg, days 0,1,2,5,6,7), 39%. For the same molecule, the “plasma concentration relative to IC50 against NCI-H460” value in [14] was “below its IC50”.

A word on the IC50: it is the point on the concentration scale where inhibition reaches its midpoint.
